From patent publication US20240092784A1, “CONDENSED HETEROCYCLIC COMPOUND” (NISSAN CHEMICAL CORPORATION, priority 2020, published 2024)

The molecules below were run against human SPR (Homo sapiens (Human), UniProt P35270) (assay: Evaluation Example 2: Measurement of human SPR inhibitory activity (seven concentrations, sepiapterin absorbance at 420 nm)). Details: Evaluation Example 2, seven concentrations 0.14 nM to 100 nM, 240 minutes at room temperature, read-out: IC50.
Sequence of human SPR (P35270 whole entry): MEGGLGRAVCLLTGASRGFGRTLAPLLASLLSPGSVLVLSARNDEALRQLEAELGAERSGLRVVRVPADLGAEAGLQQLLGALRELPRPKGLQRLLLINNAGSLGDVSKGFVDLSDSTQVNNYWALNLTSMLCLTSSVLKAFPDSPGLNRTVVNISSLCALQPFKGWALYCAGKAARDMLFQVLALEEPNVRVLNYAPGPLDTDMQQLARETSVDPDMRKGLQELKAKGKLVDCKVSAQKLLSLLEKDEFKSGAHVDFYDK
Type: biochemical
Method in brief: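 Reactions ran 240 min at room temperature in 100 mM Tris-HCl pH 7.5 with 0.01% BSA. They contained tag-cleaved, E. coli-expressed full-length human SPR (diluted to 150 ng/mL), seven compound concentrations from 0.14 to 100 nM, and sepiapterin/NADPH added as a 120 μM/160 μM solution. Inhibition was calculated from sepiapterin absorbance at 420 nm.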
Work on `CC(C)Cn1c(=O)c(C(=O)NC2CC2)c(O)n2ncc(/C=C/C(=O)N3CCC4(CCOCC4)C3)c12` [compound 559, (E)-N-Cyclopropyl-7-hydroxy-4-isobutyl-5-oxo-3-(3-oxo-3-(8-oxa-2-azaspiro[4.5]decan-2-yl)prop-1-en-1-yl)-4,5-dihydropyrazolo[1,5-a]pyrimidine-6-carboxamide] yielded an IC50 of 1000 pM.
Molecule `CC[C@@H]1CCCN1C(=O)/C=C/c1cnn2c(O)c(C(=O)NC3CC3)c(=O)n(CC(C)C)c12` [compound 562, (R,E)-N-Cyclopropyl-3-(3-(2-ethylpyrrolidin-1-yl)-3-oxoprop-1-en-1-yl)-7-hydroxy-4-isobutyl-5-oxo-4,5-dihydropyrazolo[1,5-a]pyrimidine-6-carboxamide] has an IC50 of 1310 pM.
`Cc1nn2c(O)c(C(=O)NC3CC3)c(=O)n(CC(C)C)c2c1/C=C/C(=O)N1CCOCC1` [compound 563, (E)-N-Cyclopropyl-7-hydroxy-4-isobutyl-2-methyl-3-(3-morpholino-3-oxoprop-1-en-1-yl)-5-oxo-4,5-dihydropyrazolo[1,5-a]pyrimidine-6-carboxamide] gave an IC50 of 700 pM.
`Cc1nn2c(O)c(C(=O)NC3CC3)c(=O)n(CC(C)C)c2c1/C=C/C(=O)N1CCCC1` [compound 564, (E)-N-Cyclopropyl-7-hydroxy-4-isobutyl-2-methyl-5-oxo-3-(3-oxo-3-(pyrrolidin-1-yl)prop-1-en-1-yl)-4,5-dihydropyrazolo[1,5-a]pyrimidine-6-carboxamide] was tested, and the IC50 was 950 pM.
In the case of `Cc1nn2c(O)c(C(=O)NC3CC3)c(=O)n(CC(C)C)c2c1/C=C/C(=O)N1CCC(F)(F)C1` [compound 565, (E)-N-Cyclopropyl-3-(3-(3,3-difluoropyrrolidin-1-yl)-3-oxoprop-1-en-1-yl)-7-hydroxy-4-isobutyl-2-methyl-5-oxo-4,5-dihydropyrazolo[1,5-a]pyrimidine-6-carboxamide], the IC50 is reported as 930 pM.
For `Cc1nn2c(O)c(C(=O)NC3CC3)c(=O)n(CC(C)C)c2c1/C=C/C(=O)N1CC[C@H](F)C1` [compound 566, (S,E)-N-Cyclopropyl-3-(3-(3-fluoropyrrolidin-1-yl)-3-oxoprop-1-en-1-yl)-7-hydroxy-4-isobutyl-2-methyl-5-oxo-4,5-dihydropyrazolo[1,5-a]pyrimidine-6-carboxamide], the IC50 was 940 pM.
Molecule `Cc1nn2c(O)c(C(=O)NC3CC3)c(=O)n(CC(C)C)c2c1/C=C/C(=O)N1[C@@H](C)COC[C@@H]1C` [compound 567, N-Cyclopropyl-3-((E)-3-((3S,5S)-3,5-dimethylmorpholino)-3-oxoprop-1-en-1-yl)-7-hydroxy-4-isobutyl-2-methyl-5-oxo-4,5-dihydropyrazolo[1,5-a]pyrimidine-6-carboxamide] has an IC50 of 690 pM.
In the case of `Cc1nn2c(O)c(C(=O)NC3CC3)c(=O)n(CC(C)C)c2c1/C=C/C(=O)N1CCOC[C@@H]1C` [compound 568, (S,E)-N-Cyclopropyl-7-hydroxy-4-isobutyl-2-methyl-3-(3-(3-methylmorpholino)-3-oxoprop-1-en-1-yl)-5-oxo-4,5-dihydropyrazolo[1,5-a]pyrimidine-6-carboxamide], the IC50 is reported as 680 pM.
`Cc1nn2c(O)c(C(=O)NC3CC3)c(=O)n(CC(C)C)c2c1/C=C/C(=O)N1CC2CCC(C1)O2` [compound 569, (E)-3-(3-(8-Oxa-3-azabicyclo[3.2.1]octan-3-yl)-3-oxoprop-1-en-1-yl)-N-cyclopropyl-7-hydroxy-4-isobutyl-2-methyl-5-oxo-4,5-dihydropyrazolo[1,5-a]pyrimidine-6-carboxamide] showed an IC50 of 670 pM.
`Cc1nn2c(O)c(C(=O)NC3CC3)c(=O)n(CC(C)C)c2c1/C=C/C(=O)N1CCOC[C@H]1C` [compound 570, (R,E)-N-Cyclopropyl-7-hydroxy-4-isobutyl-2-methyl-3-(3-(3-methylmorpholino)-3-oxoprop-1-en-1-yl)-5-oxo-4,5-dihydropyrazolo[1,5-a]pyrimidine-6-carboxamide] gave an IC50 of 750 pM.
In the case of `Cc1nn2c(O)c(C(=O)NC3CC3)c(=O)n(CC(C)C)c2c1/C=C/C(=O)N(C)C1CC1` [compound 572, (E)-N-Cyclopropyl-3-(3-(cyclopropyl(methyl)amino)-3-oxoprop-1-en-1-yl)-7-hydroxy-4-isobutyl-2-methyl-5-oxo-4,5-dihydropyrazolo[1,5-a]pyrimidine-6-carboxamide], the IC50 is reported as 1100 pM.
For `CC[C@@H]1COCCN1C(=O)/C=C/c1c(C)nn2c(O)c(C(=O)NC3CC3)c(=O)n(CC(C)C)c12` [compound 573, (R,E)-N-Cyclopropyl-3-(3-(3-ethylmorpholino)-3-oxoprop-1-en-1-yl)-7-hydroxy-4-isobutyl-2-methyl-5-oxo-4,5-dihydropyrazolo[1,5-a]pyrimidine-6-carboxamide], the IC50 was 880 pM.
Work on `Cc1nn2c(O)c(C(=O)NC3CC3)c(=O)n(CC(C)C)c2c1/C=C/C(=O)N1CCN(C)CC1` [compound 574, (E)-N-Cyclopropyl-7-hydroxy-4-isobutyl-2-methyl-3-(3-(4-methylpiperazin-1-yl)-3-oxoprop-1-en-1-yl)-5-oxo-4,5-dihydropyrazolo[1,5-a]pyrimidine-6-carboxamide] yielded an IC50 of 790 pM.
`Cc1nn2c(O)c(C(=O)NC3CC3)c(=O)n(CC3CCOCC3)c2c1/C=C/C(=O)N1CCOCC1` [compound 575, (E)-N-Cyclopropyl-7-hydroxy-2-methyl-3-(3-morpholino-3-oxoprop-1-en-1-yl)-5-oxo-4-((tetrahydro-2H-pyran-4-yl)methyl)-4,5-dihydropyrazolo[1,5-a]pyrimidine-6-carboxamide] gave an IC50 of 810 pM.
In the case of `Cc1nn2c(O)c(C(=O)NC3CC3)c(=O)n(CC(C)C)c2c1/C=C/C(=O)N1[C@H](C)COC[C@H]1C` [compound 576, N-Cyclopropyl-3-((E)-3-((3R,5R)-3,5-dimethylmorpholino)-3-oxoprop-1-en-1-yl)-7-hydroxy-4-isobutyl-2-methyl-5-oxo-4,5-dihydropyrazolo[1,5-a]pyrimidine-6-carboxamide], the IC50 is reported as 860 pM.
`CO[C@H]1CCN(C(=O)/C=C/c2c(C)nn3c(O)c(C(=O)NC4CC4)c(=O)n(CC(C)C)c23)C1` [compound 577, (S,E)-N-Cyclopropyl-7-hydroxy-4-isobutyl-3-(3-(3-methoxypyrrolidin-1-yl)-3-oxoprop-1-en-1-yl)-2-methyl-5-oxo-4,5-dihydropyrazolo[1,5-a]pyrimidine-6-carboxamide] gave an IC50 of 1100 pM.
In the case of `CO[C@@H]1CCN(C(=O)/C=C/c2c(C)nn3c(O)c(C(=O)NC4CC4)c(=O)n(CC(C)C)c23)C1` [compound 578, (R,E)-N-Cyclopropyl-7-hydroxy-4-isobutyl-3-(3-(3-methoxypyrrolidin-1-yl)-3-oxoprop-1-en-1-yl)-2-methyl-5-oxo-4,5-dihydropyrazolo[1,5-a]pyrimidine-6-carboxamide], the IC50 is reported as 900 pM.
With `Cc1nn2c(O)c(C(=O)NC3CC3)c(=O)n(CC(C)C)c2c1/C=C/C(=O)N1CCC(F)(F)CC1` [compound 579, (E)-N-Cyclopropyl-3-(3-(4,4-difluoropiperidin-1-yl)-3-oxoprop-1-en-1-yl)-7-hydroxy-4-isobutyl-2-methyl-5-oxo-4,5-dihydropyrazolo[1,5-a]pyrimidine-6-carboxamide] the IC50 was 870 pM.
In the case of `Cc1nn2c(O)c(C(=O)NC3CC3)c(=O)n(CC(C)C)c2c1/C=C/C(=O)N1CCC[C@@H]1C` [compound 580, (S,E)-N-Cyclopropyl-7-hydroxy-4-isobutyl-2-methyl-3-(3-(2-methylpyrrolidin-1-yl)-3-oxoprop-1-en-1-yl)-5-oxo-4,5-dihydropyrazolo[1,5-a]pyrimidine-6-carboxamide], the IC50 is reported as 960 pM.
Work on `Cc1nn2c(O)c(C(=O)NC3CC3)c(=O)n(CC(C)C)c2c1/C=C/C(=O)N1CCC[C@H]1C` [compound 581, (R,E)-N-Cyclopropyl-7-hydroxy-4-isobutyl-2-methyl-3-(3-(2-methylpyrrolidin-1-yl)-3-oxoprop-1-en-1-yl)-5-oxo-4,5-dihydropyrazolo[1,5-a]pyrimidine-6-carboxamide] yielded an IC50 of 1090 pM.
In the case of `Cc1nn2c(O)c(C(=O)NC3CC3)c(=O)n(CC(C)(C)C)c2c1/C=C/C(=O)N1CCOCC1` [compound 582, (E)-N-Cyclopropyl-7-hydroxy-2-methyl-3-(3-morpholino-3-oxoprop-1-en-1-yl)-4-neopentyl-5-oxo-4,5-dihydropyrazolo[1,5-a]pyrimidine-6-carboxamide], the IC50 is reported as 630 pM.
`Cc1nn2c(O)c(C(=O)NC3CC3)c(=O)n(CC(C)(C)C)c2c1/C=C/C1CCOCC1` [compound 584, (E)-N-Cyclopropyl-7-hydroxy-2-methyl-4-neopentyl-5-oxo-3-(2-(tetrahydro-2H-pyran-4-yl)vinyl)-4,5-dihydropyrazolo[1,5-a]pyrimidine-6-carboxamide] gave an IC50 of 1200 pM.
`CNc1nn2c(O)c(C(=O)NC3CC3)c(=O)n(CC3(C)CCOCC3)c2c1/C=C/C1CCOCC1` [compound 585, (E)-N-Cyclopropyl-7-hydroxy-2-(methylamino)-4-((4-methyltetrahydro-2H-pyran-4-yl)methyl)-5-oxo-3-(2-(tetrahydro-2H-pyran-4-yl)vinyl)-4,5-dihydropyrazolo[1,5-a]pyrimidine-6-carboxamide] was tested, and the IC50 was 1230 pM.
Molecule `CCc1nn2c(O)c(C(=O)NC3CC3)c(=O)n(CC(C)C)c2c1/C=C/C(=O)N1CCOCC1` [compound 586, (E)-N-Cyclopropyl-2-ethyl-7-hydroxy-4-isobutyl-3-(3-morpholino-3-oxoprop-1-en-1-yl)-5-oxo-4,5-dihydropyrazolo[1,5-a]pyrimidine-6-carboxamide] has an IC50 of 990 pM.
`CC(C)Cn1c(=O)c(C(=O)NC2CC2)c(O)n2ncc(/C=C/C(=O)N3CCC[C@H]3C(=O)N(C)C)c12` [compound 587, (S,E)-N-Cyclopropyl-3-(3-(2-(dimethylcarbamoyl)pyrrolidin-1-yl)-3-oxoprop-1-en-1-yl)-7-hydroxy-4-isobutyl-5-oxo-4,5-dihydropyrazolo[1,5-a]pyrimidine-6-carboxamide] gave an IC50 of 1370 pM.
